Earlier results, collected in publication PMC9347208, “Pharmacological activation of the hERG K^+ channel for the management of the long QT syndrome: A review” (Journal of Arrhythmia, 2022).

Legend:
hCav1.2 (ICa,L) = test system: hCav1.2 (ICa,L); parameters: method as in column Ref. of the table row
hERG channel [1] = conditions: ref [41]
hERG channel [2] = conditions: for Affinity for the opened and closed states of the hERG channel: ref [41]; for Type: type of hERG activator by main mechanism of action, ref [40]
hERG mutant N470D = conditions: 3 μM; ref [28]
hERG mutant G601S = conditions: 3 μM; compared with the WT; ref [28]
G601S hERG mutant = conditions: ref [25]
[3] = test system: Ca^2+‐activated K^+ (BK channel); conditions: 0.5 μM; ref [61], [80]
[4] = test system: ventricular repolarisation (APD, QT interval); conditions: ref [21], [60], [61]
isolated rabbit hearts = conditions: ref [61], [80]

Compound: O=C(Nc1ccc(Cl)cc1)Nc1ccc(Cl)cc1-c1nnn[nH]1 [SB‐335573]
- Channel selectivity: effect on recombinant hNav1.5 (INa) (hNav1.5 (INa)): Weak blocker of recombinant hNav1.5 (INa) and hCav1.2 (ICa,L) channels.
- Channel selectivity: effect on recombinant hCav1.2 (ICa,L) (hCav1.2 (ICa,L)): Weak blocker of recombinant hNav1.5 (INa) and hCav1.2 (ICa,L) channels.
- Reported benefit for LQTS: diLQTS, effect of quinidine at single concentrations (hERG channel [1]; 0.37, 1.11, and 3.33 μM, concentration‐dependent): did reduce the effect
- Reported benefit for LQTS: diLQTS, shift of the pIC50 curve of quinidine (hERG channel [1]): ineffective
- Affinity for the opened and closed states of the hERG channel (hERG channel [2]): Strong interaction with the selectivity filter (SF). Tetrazole nitrogen accepts a weak hydrogen bond from the side‐chain ‐OH on S624. Makes hydrogen bonds to S649 and M645 on an adjacent subunit. Has an equal affinity for the opened and closed states of the channel.
- Type (hERG channel [2]): 4

Compound: FC(F)(F)Oc1ccc(Nc2ncc(COc3ccc4[nH]ncc4c3)cn2)cc1 [ITP‐2, 5‐(([1H‐indazol‐5‐yl]oxy)methyl)‐N‐(4‐[trifluoromethoxy]phenyl)pyrimidin‐2‐amine]
- Reported benefit for LQT: cLQTS, activation of N470D (hERG mutant N470D): fail to activate
- Reported benefit for LQT: cLQTS, activation of trafficking deficient G601S (hERG mutant G601S): twofold reduced potency

Compound: CN(CCOc1ccc(NS(C)(=O)=O)cc1)CCc1ccc(NS(C)(=O)=O)cc1 [dofetilide]
- Expression of trafficking defective hERG channels (G601S hERG mutant): rescue the expression

Compound: FC(F)(F)c1cccc(Nc2ccccc2-c2nnn[nH]2)c1 [SKF‐32802]
- Channel selectivity: effect on recombinant hNav1.5 (INa) (hNav1.5 (INa)): Weak blocker of recombinant hNav1.5 (INa) and hCav1.2 (ICa,L) channels.
- Channel selectivity: effect on recombinant hCav1.2 (ICa,L) (hCav1.2 (ICa,L)): Weak blocker of recombinant hNav1.5 (INa) and hCav1.2 (ICa,L) channels.
- Reported benefit for LQTS: diLQTS, shift of the pIC50 curve of quinidine (hERG channel [1]): diLQTS: concentration‐dependent right‐shift of the pIC50 curves of quinidine.
- Affinity for the opened and closed states of the hERG channel (hERG channel [2]): Strong interaction with the selectivity filter (SF). Hydrogen bond with T623. Has an equal affinity for the opened and closed states of the channel.
- Type (hERG channel [2]): 3

Compound: Cc1cccc(C)c1OC[C@@H](C)NC(=O)N[C@H](C)COc1c(C)cccc1C [MC450]
- Type (hERG channel [2]): 2

Compound: O=C(O)CC1CCC(c2ccc(-c3cc(C(F)(F)F)[nH]n3)cc2)CC1 (stereo not shown) [A‐935142]
- Reported benefit for LQT: diLQTS, hERG inhibition by sotalol and terfenadine (hERG channel [1]; [54]): diLQTS: did not prevent inhibition of the hERG channel by low‐affinity inhibitors sotalol and terfenadine suggesting it may be ineffective against the effects of diLQTs. This experimental evidence warrants further investigation.
- Type (hERG channel [2]): 1, 2, and possibly 3

Compound: CC(=O)c1c(O)c(C)c(O)c(Cc2c(O)c3c(c(C(=O)/C=C/c4ccccc4)c2O)OC(C)(C)C=C3)c1O [Mallotoxin (MTX), Mallotoxin]
- Channel selectivity: effect on Ca^2+‐activated K^+ (BK channel) [3]: Activates Ca^2+‐activated K^+ (BK channel) at 0.5 μM.
- Type (hERG channel [2]): 3
- Effect on PRRP and QT interval [4]: increase the PRRP and shorten the QT interval but potentially to the point of triggering arrhythmia
- Reported associated pro‐arrhythmic risk: ventricular fibrillation (isolated rabbit hearts; 1 μM): elicits ventricular fibrillation (VF)
- Reported associated pro‐arrhythmic risk: ECG intervals (isolated rabbit hearts; 0.1 μm): Shortens QT interval, JT interval, increases Tp‐Te, and rTp‐Te
